Laboratory results published in paper PMC3759246 (Bioorganic & medicinal chemistry letters, 2013).
Marks after values point to notes of the source that are not given here.

Legend:
[1] = cited from earlier work
WT HIV-1 (IIIB) = assay: microbe, parasite or virus in culture; settings: Human immunodeficiency virus 1, IIIB, MT2, read-out: EC50 in cell assays

EC50 (WT HIV-1 (IIIB))	Structure (SMILES)	Aqueous solubility S [1]
	Cc1cc(C#N)cc(C)c1Oc1nc(Nc2ccc(C#N)cc2)nc(N)c1Br [etravirine]	≪ 1 ^b μg/mL
~100 nM	Cc1ccnc2c1NC(=O)c1cccnc1N2C1CC1 [nevirapine]	
